Measured values as given in patent publication US20240101576A1, “HETEROCYCLIC INHIBITORS OF EGFR AND/OR HER2, FOR USE IN THE TREATMENT OF CANCER” (Scorpion Therapeutics, Inc., priority 2020, published 2024).

What was measured:
Format in all cases: cell-based
EGFR WT (Ba/F3 cells) = biological target: T1, EGFR WT (Ba/F3 cells) (Homo sapiens, UniProt P00533); experiment: Inhibitor activity on EGFR-dependent cell growth (CellTiter-Glo, 72 h), Ba/F3 EGFR WT; conditions: read-out: BaF3 WT IC50
T1 construct: expressed in transfected cells; host or cells: Ba/F3 (murine pro-B cells), retroviral transduction, puromycin selection, maintained with EGF
How it was run: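 This growth assay used Ba/F3 cells that depend on wild-type EGFR and are kept in EGF without IL3. Compounds were made up as 10 mM DMSO stocks and diluted 3-fold over 10 points. 120 nL went onto 600 cells/well. After 72 hours, 40 μL CellTiter-Glo was added and luminescence read on EnVision after 30 min.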

[1] = biological target: T2, EGFR exon 20 ASV Ins V769_D770 (Ba/F3 cells) (Homo sapiens, UniProt P00533, INS769ASV); experiment: Inhibitor activity on EGFR-dependent cell growth (CellTiter-Glo, 72 h), Ba/F3 EGFR exon 20 ASV Ins; conditions: read-out: BaF3 ASV IC50
T2 construct: expressed in transfected cells; host or cells: Ba/F3 (murine pro-B cells), retroviral transduction, puromycin selection, IL3-independent pool
How it was run: (§1)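 IC50s derive from a sigmoidal dose–response fit of CellTiter-Glo signal. The signal was normalised between […]-treated cells and cell-free medium. Ba/F3 mutant-EGFR cells, seeded at 400–800/well depending on the line, had 72 h of exposure to a 10-point, 3-fold compound series.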

[2] = biological target: T3, EGFR exon 20 SVD Ins D770_N771 (Ba/F3 cells) (Homo sapiens, UniProt P00533, INS770SVD); experiment: Inhibitor activity on EGFR-dependent cell growth (CellTiter-Glo, 72 h), Ba/F3 EGFR exon 20 SVD Ins; conditions: read-out: BaF3 SVD IC50
T3 construct: expressed in transfected cells; host or cells: Ba/F3 (murine pro-B cells), retroviral transduction, puromycin selection, IL3-independent pool
How it was run: as §1

[3] = biological target: T4, EGFR exon 20 FQEA Ins A763_V764 (Ba/F3 cells) (Homo sapiens, UniProt P00533, INS763FQEA); experiment: Inhibitor activity on EGFR-dependent cell growth (CellTiter-Glo, 72 h), Ba/F3 EGFR exon 20 FQEA Ins; conditions: read-out: BaF3 FQEA IC50
T4 construct: expressed in transfected cells; host or cells: Ba/F3 (murine pro-B cells), retroviral transduction, puromycin selection, IL3-independent pool
How it was run: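 Cell viability was measured by CellTiter-Glo after a three-day treatment. The IL3-free Ba/F3 lines carried L858R, L858R/C797S, exon 19 deletion or FQEA insertion EGFR and were seeded at 400, 600, 800 and 800 cells/well respectively.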

[4] = biological target: T2, EGFR exon 20 ASV Ins V769_D770 (Ba/F3 cells); experiment: Inhibitor activity on EGFR phosphorylation (pEGFR AlphaLISA, 2 h), Ba/F3 EGFR exon 20 ASV Ins; conditions: EGFR phosphorylation, AlphaLISA, 2 hours; read-out: ASV IC50 (pEGFR)
From the text: Example B. Inhibitor Activity on EGFR phosphorylation (pEGFR)
EGFR mutant Ba/F3 cells were generated by transduction with retrovirus containing vectors expressing EGFR L858R, EGFR exon 19del, EGFR L858R/C797S, EGFR exon 20 NPG Ins D770_N771, EGFR exon 20 ASV Ins V769_D770, or EGFR exon 20 SVD Ins D770_N771 genes along with a puromycin selection marker. Transduced cells are selected with puromycin for 7 days and are then be transferred into culture media without Interleukin 3 (IL3). Surviving cells are confirmed to express EGFR by Western blot and maintained as a pool. CUTO14 cells were obtained from Dr. Robert C. Doebele at the University of Colorado. The IC50 date are included in Table 6 and Table 7.
1.1 Cells are harvested from flask into cell culture medium and the cell number counted.
1.2 Cells are diluted with culture medium to the desired density and 40 μL of cell suspension is added into each well of 384-well cell culture plate and the seeding density is 50K cells/well (Ba/F3) or 12.5K cells/well (CUTO14).
2 Compound Preparation and Treatment
2.1 Test compounds are dissolved to 10 mM in a DMSO stock solution. 45 μL of stock solution is transferred to a 384 polypropylene plate (pp-plate). Perform 3-fold, 10-point dilution via transferring 15 μL compound into 30 μL DMSO using a TECAN (EVO200) liquid handler.
2.2 Spin plates at room temperature at 1,000 RPM for 1 minute.
2.3 Transfer 5 nL of diluted compound from compound source plate into the cell plate.
2.4 After compound treatment for 2 hours, perform pEGFR detection by AlphaLISA for compound treatment plates as described in “Detection” section.
3 Detection by pEGFR AlphaLISA (Perkin-Elmer)
3.1 Plates are removed from incubators and equilibrated at room temperature for 10 minutes, and media was removed
3.2 10 μL of lysis buffer is added and plates shaken at 600 rpm for 1 hr.
3.3 Prepare acceptor mix just before use and dispense 5 μL of acceptor mix to all the wells. Shake 350 rpm for Ihr in the dark
3.4 Prepare donor mix under low light conditions prior to use. Dispense 5 μL of donor mix to all the wells. Mix well on the shaker, seal and wrap in aluminum foil and incubate 1.5 hrs at room temperature in the dark
3.5 Transfer 18.5 μL mixture to OptiPlate 384, and read using an Envision. The IC50 date were included in Table 6 and Table 7.

T3 sequence (P00533 with tags, fused parts or gaps INS770SVD): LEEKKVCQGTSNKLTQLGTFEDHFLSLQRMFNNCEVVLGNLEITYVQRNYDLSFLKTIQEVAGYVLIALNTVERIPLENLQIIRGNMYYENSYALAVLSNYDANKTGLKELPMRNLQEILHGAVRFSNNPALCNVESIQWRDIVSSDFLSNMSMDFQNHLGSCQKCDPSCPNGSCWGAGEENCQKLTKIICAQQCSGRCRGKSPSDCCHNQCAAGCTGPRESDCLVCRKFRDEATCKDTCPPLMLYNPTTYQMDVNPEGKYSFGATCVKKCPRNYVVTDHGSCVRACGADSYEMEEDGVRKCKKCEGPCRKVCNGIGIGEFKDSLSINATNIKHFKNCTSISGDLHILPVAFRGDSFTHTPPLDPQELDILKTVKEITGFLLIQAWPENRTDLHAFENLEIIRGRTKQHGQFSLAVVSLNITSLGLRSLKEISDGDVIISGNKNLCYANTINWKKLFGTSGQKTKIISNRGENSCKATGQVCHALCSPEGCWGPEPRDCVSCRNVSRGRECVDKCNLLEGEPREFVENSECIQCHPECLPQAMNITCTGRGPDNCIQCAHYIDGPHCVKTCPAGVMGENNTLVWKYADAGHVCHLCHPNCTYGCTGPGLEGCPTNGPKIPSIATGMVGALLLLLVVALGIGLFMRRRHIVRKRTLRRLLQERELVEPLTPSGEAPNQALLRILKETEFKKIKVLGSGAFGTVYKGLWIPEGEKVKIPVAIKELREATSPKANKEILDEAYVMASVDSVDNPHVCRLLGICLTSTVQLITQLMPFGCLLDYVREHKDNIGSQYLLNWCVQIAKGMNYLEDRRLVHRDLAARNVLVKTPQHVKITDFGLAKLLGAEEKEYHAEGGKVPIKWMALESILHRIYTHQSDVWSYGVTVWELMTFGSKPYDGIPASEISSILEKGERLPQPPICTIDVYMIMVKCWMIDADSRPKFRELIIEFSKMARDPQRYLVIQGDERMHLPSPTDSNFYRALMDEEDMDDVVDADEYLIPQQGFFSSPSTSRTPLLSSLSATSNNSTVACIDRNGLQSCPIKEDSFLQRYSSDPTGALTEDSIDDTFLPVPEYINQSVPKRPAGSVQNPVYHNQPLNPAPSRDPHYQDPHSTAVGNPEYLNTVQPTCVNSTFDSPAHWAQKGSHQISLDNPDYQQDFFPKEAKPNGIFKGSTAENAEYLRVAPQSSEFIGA
T1 sequence (P00533 25-1210): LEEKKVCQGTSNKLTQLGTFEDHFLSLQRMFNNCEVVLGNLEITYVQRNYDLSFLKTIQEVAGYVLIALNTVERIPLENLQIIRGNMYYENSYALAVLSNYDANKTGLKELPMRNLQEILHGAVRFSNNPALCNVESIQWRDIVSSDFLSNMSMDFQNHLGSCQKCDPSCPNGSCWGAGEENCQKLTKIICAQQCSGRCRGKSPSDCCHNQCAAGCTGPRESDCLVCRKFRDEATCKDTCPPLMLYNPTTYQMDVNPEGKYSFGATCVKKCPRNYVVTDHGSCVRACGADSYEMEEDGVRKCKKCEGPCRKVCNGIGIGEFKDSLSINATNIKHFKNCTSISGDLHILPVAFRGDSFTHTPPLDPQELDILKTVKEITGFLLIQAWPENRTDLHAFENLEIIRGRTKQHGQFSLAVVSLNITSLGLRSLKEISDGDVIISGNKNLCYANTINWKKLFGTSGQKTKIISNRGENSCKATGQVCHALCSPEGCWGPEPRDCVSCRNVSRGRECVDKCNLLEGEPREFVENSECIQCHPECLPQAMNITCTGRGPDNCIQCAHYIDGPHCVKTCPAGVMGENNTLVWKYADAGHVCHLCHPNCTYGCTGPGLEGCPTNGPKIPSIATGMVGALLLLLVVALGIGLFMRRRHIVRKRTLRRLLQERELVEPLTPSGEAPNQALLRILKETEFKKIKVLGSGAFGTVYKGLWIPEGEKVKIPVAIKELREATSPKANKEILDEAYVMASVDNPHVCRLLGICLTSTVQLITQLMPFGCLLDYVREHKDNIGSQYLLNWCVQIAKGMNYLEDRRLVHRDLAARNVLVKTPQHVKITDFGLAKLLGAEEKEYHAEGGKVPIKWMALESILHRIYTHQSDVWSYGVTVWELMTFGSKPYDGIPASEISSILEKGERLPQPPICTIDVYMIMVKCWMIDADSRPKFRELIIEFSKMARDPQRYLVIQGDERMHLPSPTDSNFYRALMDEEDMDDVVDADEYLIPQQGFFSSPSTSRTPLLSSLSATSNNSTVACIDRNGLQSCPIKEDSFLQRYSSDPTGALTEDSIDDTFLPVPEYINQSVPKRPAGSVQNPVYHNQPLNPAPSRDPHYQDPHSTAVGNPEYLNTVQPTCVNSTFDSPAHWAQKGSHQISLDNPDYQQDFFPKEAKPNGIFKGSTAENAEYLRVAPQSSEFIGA
T2 sequence (P00533 with tags, fused parts or gaps INS769ASV): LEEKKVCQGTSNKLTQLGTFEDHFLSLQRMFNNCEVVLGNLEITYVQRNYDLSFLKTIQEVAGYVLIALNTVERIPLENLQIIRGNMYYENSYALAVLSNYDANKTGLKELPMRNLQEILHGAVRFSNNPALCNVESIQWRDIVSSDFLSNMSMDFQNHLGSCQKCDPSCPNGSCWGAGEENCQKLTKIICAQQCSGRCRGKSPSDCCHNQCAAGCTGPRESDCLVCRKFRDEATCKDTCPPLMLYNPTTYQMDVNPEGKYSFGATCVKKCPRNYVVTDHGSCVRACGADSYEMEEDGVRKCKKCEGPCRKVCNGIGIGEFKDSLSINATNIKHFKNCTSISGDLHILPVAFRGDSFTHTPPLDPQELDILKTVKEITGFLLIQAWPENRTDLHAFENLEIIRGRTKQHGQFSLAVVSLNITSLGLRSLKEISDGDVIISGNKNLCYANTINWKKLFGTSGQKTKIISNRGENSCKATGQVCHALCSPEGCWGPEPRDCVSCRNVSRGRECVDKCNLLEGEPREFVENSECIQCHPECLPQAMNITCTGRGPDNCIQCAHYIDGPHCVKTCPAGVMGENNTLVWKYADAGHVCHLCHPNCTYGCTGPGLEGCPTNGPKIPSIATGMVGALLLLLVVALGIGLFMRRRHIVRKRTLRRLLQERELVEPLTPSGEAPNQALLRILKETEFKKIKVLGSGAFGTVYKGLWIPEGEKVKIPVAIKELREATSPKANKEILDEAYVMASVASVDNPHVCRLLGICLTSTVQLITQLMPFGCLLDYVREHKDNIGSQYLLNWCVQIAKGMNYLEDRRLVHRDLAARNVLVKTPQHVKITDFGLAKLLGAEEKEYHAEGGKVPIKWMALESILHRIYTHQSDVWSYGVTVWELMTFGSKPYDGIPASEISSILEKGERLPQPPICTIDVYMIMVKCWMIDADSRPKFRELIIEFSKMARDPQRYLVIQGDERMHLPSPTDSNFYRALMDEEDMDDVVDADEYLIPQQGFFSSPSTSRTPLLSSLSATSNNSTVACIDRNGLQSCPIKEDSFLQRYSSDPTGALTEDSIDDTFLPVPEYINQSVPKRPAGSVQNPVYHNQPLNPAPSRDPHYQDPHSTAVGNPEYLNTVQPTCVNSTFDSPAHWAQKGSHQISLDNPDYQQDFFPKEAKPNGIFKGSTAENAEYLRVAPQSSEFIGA
T4 sequence (P00533 with tags, fused parts or gaps INS763FQEA): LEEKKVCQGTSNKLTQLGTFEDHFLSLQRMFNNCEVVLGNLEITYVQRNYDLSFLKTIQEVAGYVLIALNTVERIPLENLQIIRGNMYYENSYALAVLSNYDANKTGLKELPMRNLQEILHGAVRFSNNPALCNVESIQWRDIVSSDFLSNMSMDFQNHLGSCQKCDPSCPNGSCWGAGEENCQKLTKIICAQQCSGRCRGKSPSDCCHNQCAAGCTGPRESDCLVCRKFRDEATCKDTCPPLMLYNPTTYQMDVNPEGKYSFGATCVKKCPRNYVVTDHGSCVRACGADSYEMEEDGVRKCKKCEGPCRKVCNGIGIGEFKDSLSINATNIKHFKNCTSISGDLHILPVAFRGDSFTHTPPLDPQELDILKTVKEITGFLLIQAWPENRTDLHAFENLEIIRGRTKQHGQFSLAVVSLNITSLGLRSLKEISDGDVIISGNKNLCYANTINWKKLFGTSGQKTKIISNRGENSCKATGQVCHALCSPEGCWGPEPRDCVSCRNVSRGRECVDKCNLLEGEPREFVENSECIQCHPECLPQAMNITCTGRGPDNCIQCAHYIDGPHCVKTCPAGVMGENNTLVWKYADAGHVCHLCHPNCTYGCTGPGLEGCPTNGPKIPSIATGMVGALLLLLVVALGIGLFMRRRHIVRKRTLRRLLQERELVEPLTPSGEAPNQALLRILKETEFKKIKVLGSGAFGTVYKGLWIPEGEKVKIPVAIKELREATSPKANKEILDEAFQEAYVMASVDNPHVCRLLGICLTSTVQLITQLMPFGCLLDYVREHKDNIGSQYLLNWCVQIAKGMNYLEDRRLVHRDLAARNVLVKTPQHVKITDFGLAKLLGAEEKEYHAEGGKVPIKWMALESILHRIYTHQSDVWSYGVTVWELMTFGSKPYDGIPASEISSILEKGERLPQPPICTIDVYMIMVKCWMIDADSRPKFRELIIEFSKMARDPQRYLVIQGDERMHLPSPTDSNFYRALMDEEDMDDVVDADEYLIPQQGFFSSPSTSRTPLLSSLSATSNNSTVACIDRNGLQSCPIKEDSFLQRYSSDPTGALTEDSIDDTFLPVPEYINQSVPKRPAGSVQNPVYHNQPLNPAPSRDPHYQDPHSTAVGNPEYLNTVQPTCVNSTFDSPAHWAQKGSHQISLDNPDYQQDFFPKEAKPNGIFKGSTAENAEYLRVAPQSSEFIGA

| SMILES | IC50 (EGFR WT (Ba/F3 cells)) [nM] | IC50 [1] [nM] | IC50 [2] [nM] | IC50 [3] [nM] | IC50 [4] [nM] |
| --- | --- | --- | --- | --- | --- |
| COc1c(Cl)cccc1Nc1c(-c2ccnc(NCc3ccccc3)n2)[nH]c2c1C(=O)NCC2 [compound 209] | > 1000 | 100 to 1000 | 100 to 1000 | > 1000 | 100 to 1000 |
| COc1c(F)cccc1Nc1c(-c2ccnc(N)c2)[nH]c2c1C(=O)NCC2 [compound 242] | > 1000 | > 1000 | > 1000 | > 1000 | 100 to 1000 |
| COc1c(F)cccc1Nc1c(-c2ccncn2)[nH]c2c1C(=O)NCC2 [compound 244] | > 1000 | > 1000 | > 1000 | > 1000 | 100 to 1000 |
| COc1c(F)cccc1Nc1c(-c2nnc3cc(C)ccn23)[nH]c2c1C(=O)NCC2 [compound 246] | > 1000 | > 1000 | > 1000 | > 1000 | > 1000 |
| COc1c(F)cccc1Nc1c(-c2ccnc(C)c2)[nH]c2c1C(=O)NCC2 [compound 261] | > 1000 | > 1000 | > 1000 | > 1000 | 100 to 1000 |
| CNc1cc(-c2[nH]c3c(c2Nc2cccc(Cl)c2OC)C(=O)NCC3)ncn1 [compound 284] | > 1000 | > 1000 | > 1000 | > 1000 | > 1000 |
| COc1c(Cl)cccc1Nc1c(-c2ccnc(NCC(C)(C)O)n2)[nH]c2c1C(=O)NCC2 [compound 288] | > 1000 | > 1000 | > 1000 | > 1000 | > 1000 |
| COc1c(Cl)cccc1Nc1c(-c2ccnc3[nH]c(=O)oc23)[nH]c2c1C(=O)NCC2 [compound 293] | > 1000 | > 1000 | > 1000 | > 1000 | > 1000 |
| COc1cccc(Nc2c(-c3ccnc(N)n3)[nH]c3c2C(=O)NCC3)c1Cl [compound 301] | > 1000 | > 1000 | > 1000 | > 1000 | > 1000 |
| COc1cc(Cl)cc(Nc2c(-c3ccnc(N)n3)[nH]c3c2C(=O)NCC3)c1 [compound 302] | > 1000 | > 1000 | > 1000 | > 1000 | > 1000 |
| COc1c(Nc2c(-c3ccnc(N)n3)[nH]c3c2C(=O)NCC3)ccc(F)c1F [compound 303] | > 1000 | > 1000 | 100 to 1000 | > 1000 | 100 to 1000 |
| COc1c(F)cc(F)cc1Nc1c(-c2ccnc(N)n2)[nH]c2c1C(=O)NCC2 [compound 304] | > 1000 | 100 to 1000 | 100 to 1000 | 100 to 1000 | < 100 |
| Nc1nccc(-c2[nH]c3c(c2Nc2cccc4c2OCO4)C(=O)NCC3)n1 [compound 306] | > 1000 | > 1000 | > 1000 | 100 to 1000 | 100 to 1000 |
| Nc1nccc(-c2[nH]c3c(c2Nc2cccc4ccoc24)C(=O)NCC3)n1 [compound 307] | > 1000 | > 1000 | > 1000 | > 1000 | 100 to 1000 |
| COc1c(Cl)cccc1Nc1c(-c2ccnc(NCC3CC(F)(F)C3)c2)[nH]c2c1C(=O)NCC2 [compound 711] | > 1000 | > 1000 | > 1000 | > 1000 | 100 to 1000 |

Continued, values first:

| IC50 (EGFR WT (Ba/F3 cells)) [nM] | IC50 [1] [nM] | IC50 [2] [nM] | IC50 [3] [nM] | IC50 [4] [nM] | SMILES |
| --- | --- | --- | --- | --- | --- |
| > 1000 | > 1000 | > 1000 | > 1000 | 100 to 1000 | C#Cc1cccc(Nc2c(-c3ccnc(N)n3)[nH]c3c2C(=O)NCC3)c1OC [Compound 703, 2-(2-aminopyrimidin-4-yl)-3-[(3-ethynyl-2-methoxyphenyl)amino]-1H,5H,6H,7H-pyrrolo[3,2-c]pyridin-4-one] |
| > 1000 | > 1000 | > 1000 | > 1000 | > 1000 | CC#Cc1cccc(Nc2c(-c3ccnc(N)n3)[nH]c3c2C(=O)NCC3)c1OC [Compound 704, 2-(2-aminopyrimidin-4-yl)-3-[[2-methoxy-3-(prop-1-yn-1-yl)phenyl]amino]-1H,5H,6H,7H-pyrrolo[3,2-c]pyridin-4-one] |
| > 1000 | > 1000 | > 1000 | > 1000 | > 1000 | COc1cccc(Nc2c(-c3ccnc(N)n3)[nH]c3c2C(=O)NCC3)c1C [Compound 705, 2-(2-aminopyrimidin-4-yl)-3-[(3-methoxy-2-methylphenyl)amino]-1H,5H,6H,7H-pyrrolo[3,2-c]pyridin-4-one] |
| > 1000 | > 1000 | > 1000 | > 1000 | 100 to 1000 | COc1c(Cl)cccc1Nc1c(-c2ccnc(NC3CC(F)(F)C3)n2)[nH]c2c1C(=O)NCC2 [Compound 712, 3-[(3-chloro-2-methoxyphenyl)amino]-2-[2-[(3,3-difluorocyclobutyl)amino]pyrimidin-4-yl]-1H,5H,6H,7H-pyrrolo[3,2-c] pyridin-4-one] |
| > 1000 | 100 to 1000 | 100 to 1000 | 100 to 1000 | < 100 | CSc1c(Cl)cccc1Nc1c(-c2ccnc(N)n2)[nH]c2c1C(=O)NCC2 [Compound 715, 2-(2-aminopyrimidin-4-yl)-3-[[3-chloro-2-(methylsulfanyl)phenyl]amino]-1H,5H,6H,7H-pyrrolo[3,2-c]pyridin-4-one] |
| > 1000 | > 1000 | > 1000 | 100 to 1000 | 100 to 1000 | Cc1ccc(F)cc1Nc1c(-c2ccnc(N)n2)[nH]c2c1C(=O)NCC2 [compound 196] |
| > 1000 | > 1000 | > 1000 | > 1000 | > 1000 | Cc1cc(F)ccc1Nc1c(-c2ccnc(N)n2)[nH]c2c1C(=O)NCC2 [compound 197] |
| > 1000 | > 1000 | > 1000 | > 1000 | > 1000 | Cc1cccc(F)c1Nc1c(-c2ccnc(N)n2)[nH]c2c1C(=O)NCC2 [compound 198] |
| > 1000 | > 1000 | > 1000 | > 1000 | 100 to 1000 | N#Cc1c(F)cccc1Nc1c(-c2ccnc(N)n2)[nH]c2c1C(=O)NCC2 [compound 200] |
| > 1000 | > 1000 | > 1000 | > 1000 | > 1000 | Cc1c(C#N)cccc1Nc1c(-c2ccnc(N)n2)[nH]c2c1C(=O)NCC2 [compound 201] |
| > 1000 | > 1000 | > 1000 | 100 to 1000 | > 1000 | Nc1nccc(-c2[nH]c3c(c2Nc2ccc(F)c(F)c2)C(=O)NCC3)n1 [compound 203] |
| 100 to 1000 | 100 to 1000 | 100 to 1000 | 100 to 1000 | 100 to 1000 | Nc1nccc(-c2[nH]c3c(c2Nc2cc(F)cc(F)c2)C(=O)NCC3)n1 [compound 204] |
